Test results: the supplement of paper PMC4862054

What follows are compounds tested on CAL-148 (assay: normalised viability (% of control), CellTiter-Blue; higher = more viable cells (about 100 = DMSO control)). Conditions: 75 nM; incubation time: 72 h.
Protocol: (§1)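 DSRT, CellTiter-Blue viability, 72 h incubation. Signal is normalised to DMSO and benzethonium chloride controls. Value is the normalised response at dose 8.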

| SMILES | normalised viability |
| --- | --- |
| CC(=O)Nc1cccc(-n2c(=O)n(C3CC3)c(=O)c3c(Nc4ccc(I)cc4F)n(C)c(=O)c(C)c32)c1 | 85.2% |

Same assay, conditions: 300 nM; incubation time: 72 h

| SMILES | normalised viability |
| --- | --- |
| Cc1cnc(NC(=O)Nc2cc(Br)c(C)cc2OC[C@@H]2CNCCO2)cn1 | 107% |

Same assay, conditions: 3000 nM; incubation time: 72 h

| SMILES | normalised viability |
| --- | --- |
| COc1cc2nccc(Oc3ccc(NC(=O)Nc4cc(C)on4)c(Cl)c3)c2cc1OC [Tivozanib] | 94% |
| O=C(Cc1ccc(-c2ccc(OCCN3CCOCC3)cc2)cn1)NCc1ccccc1 [KX2-391] | 24.2% |
| CC1=C(/C=C/C(C)=C/C=C/C(C)=C/C(=O)O)C(C)(C)CCC1 [Tretinoin] | 80.1% |
| Nc1ccccc1NC(=O)c1ccc(CNC(=O)OCc2cccnc2)cc1 [Entinostat] | 58.7% |
| C=CC(=O)Nc1cc2c(Nc3ccc(F)c(Cl)c3)ncnc2cc1OCCCN1CCOCC1 [Canertinib] | 60% |
| CC[C@H](Nc1ncnc2[nH]cnc12)c1nc2cccc(F)c2c(=O)n1-c1ccccc1 [CAL-101] | 83.3% |
| CCCCC(=O)OCC(=O)[C@]1(O)Cc2c(O)c3c(c(O)c2[C@@H](O[C@H]2C[C@H](NC(=O)C(F)(F)F)[C@H](O)[C@H](C)O2)C1)C(=O)c1c(OC)cccc1C3=O [Valrubicin] | 0.71% |

The compounds below were run on CAL-51 in the same assay as above. Conditions: 75 nM; incubation time: 72 h.
Protocol: as §1

| SMILES | normalised viability |
| --- | --- |
| CC(=O)Nc1cccc(-n2c(=O)n(C3CC3)c(=O)c3c(Nc4ccc(I)cc4F)n(C)c(=O)c(C)c32)c1 | 73.3% |

Same assay, conditions: 300 nM; incubation time: 72 h

| SMILES | normalised viability |
| --- | --- |
| Cc1cnc(NC(=O)Nc2cc(Br)c(C)cc2OC[C@@H]2CNCCO2)cn1 | 103% |

Same assay, conditions: 3000 nM; incubation time: 72 h

| SMILES | normalised viability |
| --- | --- |
| COc1cc2nccc(Oc3ccc(NC(=O)Nc4cc(C)on4)c(Cl)c3)c2cc1OC [Tivozanib] | 80% |
| O=C(Cc1ccc(-c2ccc(OCCN3CCOCC3)cc2)cn1)NCc1ccccc1 [KX2-391] | 11.3% |
| CC1=C(/C=C/C(C)=C/C=C/C(C)=C/C(=O)O)C(C)(C)CCC1 [Tretinoin] | 90.8% |
| Nc1ccccc1NC(=O)c1ccc(CNC(=O)OCc2cccnc2)cc1 [Entinostat] | 108% |
| C=CC(=O)Nc1cc2c(Nc3ccc(F)c(Cl)c3)ncnc2cc1OCCCN1CCOCC1 [Canertinib] | 79.9% |
| CC[C@H](Nc1ncnc2[nH]cnc12)c1nc2cccc(F)c2c(=O)n1-c1ccccc1 [CAL-101] | 89.3% |
| CCCCC(=O)OCC(=O)[C@]1(O)Cc2c(O)c3c(c(O)c2[C@@H](O[C@H]2C[C@H](NC(=O)C(F)(F)F)[C@H](O)[C@H](C)O2)C1)C(=O)c1c(OC)cccc1C3=O [Valrubicin] | 6.83% |

What follows are compounds tested on CAL-85-1 in the same assay as above. Conditions: 75 nM; incubation time: 72 h.
Protocol: as §1

| SMILES | normalised viability |
| --- | --- |
| CC(=O)Nc1cccc(-n2c(=O)n(C3CC3)c(=O)c3c(Nc4ccc(I)cc4F)n(C)c(=O)c(C)c32)c1 | 38.8% |

Same assay, conditions: 300 nM; incubation time: 72 h

| SMILES | normalised viability |
| --- | --- |
| Cc1cnc(NC(=O)Nc2cc(Br)c(C)cc2OC[C@@H]2CNCCO2)cn1 | 88.1% |

Same assay, conditions: 3000 nM; incubation time: 72 h

| SMILES | normalised viability |
| --- | --- |
| COc1cc2nccc(Oc3ccc(NC(=O)Nc4cc(C)on4)c(Cl)c3)c2cc1OC [Tivozanib] | 92.8% |
| O=C(Cc1ccc(-c2ccc(OCCN3CCOCC3)cc2)cn1)NCc1ccccc1 [KX2-391] | 42.1% |
| CC1=C(/C=C/C(C)=C/C=C/C(C)=C/C(=O)O)C(C)(C)CCC1 [Tretinoin] | 88.5% |
| Nc1ccccc1NC(=O)c1ccc(CNC(=O)OCc2cccnc2)cc1 [Entinostat] | 53.7% |
| C=CC(=O)Nc1cc2c(Nc3ccc(F)c(Cl)c3)ncnc2cc1OCCCN1CCOCC1 [Canertinib] | 34.3% |
| CC[C@H](Nc1ncnc2[nH]cnc12)c1nc2cccc(F)c2c(=O)n1-c1ccccc1 [CAL-101] | 76.8% |
| CCCCC(=O)OCC(=O)[C@]1(O)Cc2c(O)c3c(c(O)c2[C@@H](O[C@H]2C[C@H](NC(=O)C(F)(F)F)[C@H](O)[C@H](C)O2)C1)C(=O)c1c(OC)cccc1C3=O [Valrubicin] | 31.2% |

The compounds below were run on DU-4475 in the same assay as above. Conditions: 75 nM; incubation time: 72 h.
Protocol: as §1

| SMILES | normalised viability |
| --- | --- |
| CC(=O)Nc1cccc(-n2c(=O)n(C3CC3)c(=O)c3c(Nc4ccc(I)cc4F)n(C)c(=O)c(C)c32)c1 | -1.23% |

Same assay, conditions: 300 nM; incubation time: 72 h

| SMILES | normalised viability |
| --- | --- |
| Cc1cnc(NC(=O)Nc2cc(Br)c(C)cc2OC[C@@H]2CNCCO2)cn1 | 102% |

Same assay, conditions: 3000 nM; incubation time: 72 h

| SMILES | normalised viability |
| --- | --- |
| COc1cc2nccc(Oc3ccc(NC(=O)Nc4cc(C)on4)c(Cl)c3)c2cc1OC [Tivozanib] | 118% |
| O=C(Cc1ccc(-c2ccc(OCCN3CCOCC3)cc2)cn1)NCc1ccccc1 [KX2-391] | 8.65% |
| CC1=C(/C=C/C(C)=C/C=C/C(C)=C/C(=O)O)C(C)(C)CCC1 [Tretinoin] | 99% |
| Nc1ccccc1NC(=O)c1ccc(CNC(=O)OCc2cccnc2)cc1 [Entinostat] | 103% |
| C=CC(=O)Nc1cc2c(Nc3ccc(F)c(Cl)c3)ncnc2cc1OCCCN1CCOCC1 [Canertinib] | 103% |
| CC[C@H](Nc1ncnc2[nH]cnc12)c1nc2cccc(F)c2c(=O)n1-c1ccccc1 [CAL-101] | 104% |
| CCCCC(=O)OCC(=O)[C@]1(O)Cc2c(O)c3c(c(O)c2[C@@H](O[C@H]2C[C@H](NC(=O)C(F)(F)F)[C@H](O)[C@H](C)O2)C1)C(=O)c1c(OC)cccc1C3=O [Valrubicin] | -1.61% |

What follows are compounds tested on HDQ-P1 in the same assay as above. Conditions: 75 nM; incubation time: 72 h.
Protocol: as §1

| SMILES | normalised viability |
| --- | --- |
| CC(=O)Nc1cccc(-n2c(=O)n(C3CC3)c(=O)c3c(Nc4ccc(I)cc4F)n(C)c(=O)c(C)c32)c1 | 47.9% |

Same assay, conditions: 300 nM; incubation time: 72 h

| SMILES | normalised viability |
| --- | --- |
| Cc1cnc(NC(=O)Nc2cc(Br)c(C)cc2OC[C@@H]2CNCCO2)cn1 | 96.2% |

Same assay, conditions: 3000 nM; incubation time: 72 h

| SMILES | normalised viability |
| --- | --- |
| COc1cc2nccc(Oc3ccc(NC(=O)Nc4cc(C)on4)c(Cl)c3)c2cc1OC [Tivozanib] | 67.6% |
| O=C(Cc1ccc(-c2ccc(OCCN3CCOCC3)cc2)cn1)NCc1ccccc1 [KX2-391] | 41.6% |
| CC1=C(/C=C/C(C)=C/C=C/C(C)=C/C(=O)O)C(C)(C)CCC1 [Tretinoin] | 121% |
| Nc1ccccc1NC(=O)c1ccc(CNC(=O)OCc2cccnc2)cc1 [Entinostat] | 80% |
| C=CC(=O)Nc1cc2c(Nc3ccc(F)c(Cl)c3)ncnc2cc1OCCCN1CCOCC1 [Canertinib] | 27.5% |
| CC[C@H](Nc1ncnc2[nH]cnc12)c1nc2cccc(F)c2c(=O)n1-c1ccccc1 [CAL-101] | 80.7% |
| CCCCC(=O)OCC(=O)[C@]1(O)Cc2c(O)c3c(c(O)c2[C@@H](O[C@H]2C[C@H](NC(=O)C(F)(F)F)[C@H](O)[C@H](C)O2)C1)C(=O)c1c(OC)cccc1C3=O [Valrubicin] | 45.8% |

These compounds were tested on MDA-MB-453 in the same assay as above. Conditions: 75 nM; incubation time: 72 h.
Protocol: as §1

| SMILES | normalised viability |
| --- | --- |
| CC(=O)Nc1cccc(-n2c(=O)n(C3CC3)c(=O)c3c(Nc4ccc(I)cc4F)n(C)c(=O)c(C)c32)c1 | 72.8% |

Same assay, conditions: 300 nM; incubation time: 72 h

| SMILES | normalised viability |
| --- | --- |
| Cc1cnc(NC(=O)Nc2cc(Br)c(C)cc2OC[C@@H]2CNCCO2)cn1 | 93.3% |

Same assay, conditions: 3000 nM; incubation time: 72 h

| SMILES | normalised viability |
| --- | --- |
| COc1cc2nccc(Oc3ccc(NC(=O)Nc4cc(C)on4)c(Cl)c3)c2cc1OC [Tivozanib] | 51.9% |
| O=C(Cc1ccc(-c2ccc(OCCN3CCOCC3)cc2)cn1)NCc1ccccc1 [KX2-391] | 36.2% |
| CC1=C(/C=C/C(C)=C/C=C/C(C)=C/C(=O)O)C(C)(C)CCC1 [Tretinoin] | 94.1% |
| Nc1ccccc1NC(=O)c1ccc(CNC(=O)OCc2cccnc2)cc1 [Entinostat] | 50.3% |
| C=CC(=O)Nc1cc2c(Nc3ccc(F)c(Cl)c3)ncnc2cc1OCCCN1CCOCC1 [Canertinib] | 28.2% |
| CC[C@H](Nc1ncnc2[nH]cnc12)c1nc2cccc(F)c2c(=O)n1-c1ccccc1 [CAL-101] | 79.5% |
| CCCCC(=O)OCC(=O)[C@]1(O)Cc2c(O)c3c(c(O)c2[C@@H](O[C@H]2C[C@H](NC(=O)C(F)(F)F)[C@H](O)[C@H](C)O2)C1)C(=O)c1c(OC)cccc1C3=O [Valrubicin] | 18.3% |

Each compound was assayed on CAL-51 in the same assay as above. Conditions: 7.5 nM; incubation time: 72 h.
Protocol: (§2)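 DSRT, CellTiter-Blue viability, 72 h incubation. Signal is normalised to DMSO and benzethonium chloride controls. Value is the normalised response at dose 6.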

| SMILES | normalised viability |
| --- | --- |
| CC(=O)Nc1cccc(-n2c(=O)n(C3CC3)c(=O)c3c(Nc4ccc(I)cc4F)n(C)c(=O)c(C)c32)c1 | 81.6% |

Same assay, conditions: 30 nM; incubation time: 72 h

| SMILES | normalised viability |
| --- | --- |
| Cc1cnc(NC(=O)Nc2cc(Br)c(C)cc2OC[C@@H]2CNCCO2)cn1 | 95.7% |

Same assay, conditions: 300 nM; incubation time: 72 h

| SMILES | normalised viability |
| --- | --- |
| COc1cc2nccc(Oc3ccc(NC(=O)Nc4cc(C)on4)c(Cl)c3)c2cc1OC [Tivozanib] | 89.8% |
| O=C(Cc1ccc(-c2ccc(OCCN3CCOCC3)cc2)cn1)NCc1ccccc1 [KX2-391] | 13.9% |
| CC1=C(/C=C/C(C)=C/C=C/C(C)=C/C(=O)O)C(C)(C)CCC1 [Tretinoin] | 96.2% |
| Nc1ccccc1NC(=O)c1ccc(CNC(=O)OCc2cccnc2)cc1 [Entinostat] | 114% |
| C=CC(=O)Nc1cc2c(Nc3ccc(F)c(Cl)c3)ncnc2cc1OCCCN1CCOCC1 [Canertinib] | 104% |
| CC[C@H](Nc1ncnc2[nH]cnc12)c1nc2cccc(F)c2c(=O)n1-c1ccccc1 [CAL-101] | 85.3% |
| CCCCC(=O)OCC(=O)[C@]1(O)Cc2c(O)c3c(c(O)c2[C@@H](O[C@H]2C[C@H](NC(=O)C(F)(F)F)[C@H](O)[C@H](C)O2)C1)C(=O)c1c(OC)cccc1C3=O [Valrubicin] | 34.5% |

What follows are compounds tested on DU-4475 in the same assay as above. Conditions: 7.5 nM; incubation time: 72 h.
Protocol: as §2

| SMILES | normalised viability |
| --- | --- |
| CC(=O)Nc1cccc(-n2c(=O)n(C3CC3)c(=O)c3c(Nc4ccc(I)cc4F)n(C)c(=O)c(C)c32)c1 | 0.58% |

Same assay, conditions: 30 nM; incubation time: 72 h

| SMILES | normalised viability |
| --- | --- |
| Cc1cnc(NC(=O)Nc2cc(Br)c(C)cc2OC[C@@H]2CNCCO2)cn1 | 106% |

Same assay, conditions: 300 nM; incubation time: 72 h

| SMILES | normalised viability |
| --- | --- |
| COc1cc2nccc(Oc3ccc(NC(=O)Nc4cc(C)on4)c(Cl)c3)c2cc1OC [Tivozanib] | 109% |
| O=C(Cc1ccc(-c2ccc(OCCN3CCOCC3)cc2)cn1)NCc1ccccc1 [KX2-391] | 9.43% |
